ChEMBL document CHEMBL1201862, “PubChem BioAssay data set” (2004)
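Briefly, cells in 96-well plates were exposed to five compound concentrations for 48 h, and endpoints were estimated by linear interpolation. At the GI50, growth is halved.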 Active and inactive are the calls of the source. Rule as the data show it: active = GI50 up to about 1.1 µM and inactive = higher.

Key:
Assay in all cases: growth of human tumour cells (NCI), 48 h
DMS-114 = system: DMS-114
DLD-1 = system: DLD-1
LXFL 529 = system: LXFL 529
KM-20L2 = system: KM-20L2
XF498 = system: XF498
RXF 631 = system: RXF 631
HOP-18 = system: HOP-18
SNB-78 = system: SNB-78
BT-549 = system: BT-549

Q: `CC1(CO)OC(n2cc(C(=O)NC(=O)OCc3ccccc3)c(=O)[nH]c2=O)CC1O` (centres undefined) was tested. Which GI50 (DMS-114) did it give?
A: > 100 µM (inactive)

Q: And the GI50 (DLD-1)?
A: > 100 µM (inactive)

Q: And the GI50 (LXFL 529)?
A: > 100 µM (inactive)

Q: What about the GI50 (KM-20L2) of the same compound?
A: > 100 µM (inactive)

Q: And the GI50 (XF498)?
A: > 100 µM (inactive)

Q: What about the GI50 (RXF 631) of the same compound?
A: > 100 µM (inactive)

Q: And the GI50 (HOP-18)?
A: > 100 µM (inactive)

Q: Which GI50 (DMS-114) does the source give for `O=S(=O)(c1cccc(N=C=S)c1)c1cccc(N=C=S)c1` here?
A: 15.5 µM (inactive)

Q: And the GI50 (DLD-1)?
A: 19.2 µM (inactive)

Q: What about the GI50 (LXFL 529) of the same compound?
A: 15.2 µM (inactive)

Q: What about the GI50 (SNB-78) of the same compound?
A: 30.6 µM (inactive)

Q: And the GI50 (KM-20L2)?
A: 31.5 µM (inactive)

Q: `COC(=O)CCCC(=O)O` was tested. Which GI50 (BT-549) did it give?
A: > 100 µM (inactive)

Q: `CC(C)=NNc1snnc1C(N)=O` was tested. Which GI50 (BT-549) did it give?
A: > 100 µM (inactive)

Q: How did the GI50 (BT-549) turn out when `CC(C)c1c(P(=O)(c2ccccc2)c2ccccc2)n(C)c2ccccc12` was run?
A: > 100 µM (inactive)

Q: `CCc1n[nH]c(=O)n1/N=C/c1ccc(/C=N/n2c(CC)n[nH]c2=O)cc1` was tested. Which GI50 (BT-549) did it give?
A: > 100 µM (inactive)

Q: `COc1cc(C2c3cc4c(cc3[C@H](OCCN(C)C)[C@@H]3COC(=O)C23)OCO4)cc(OC)c1O` (some centres undefined) was tested. Which GI50 (DLD-1) did it give?
A: 0.805 µM (active)

Q: And the GI50 (LXFL 529)?
A: 2.02 µM (inactive)

Q: And the GI50 (SNB-78)?
A: 3.83 µM (inactive)

Q: And the GI50 (KM-20L2)?
A: 0.364 µM (active)

Q: What about the GI50 (BT-549) of the same compound?
A: 0.499 µM (active)

Q: And the GI50 (XF498)?
A: 0.115 µM (active)

Q: And the GI50 (RXF 631)?
A: 0.0724 µM (active)

Q: What about the GI50 (HOP-18) of the same compound?
A: 0.27 µM (active)

Q: `O=[N+]([O-])c1cc(Cl)cnc1Br` was tested. Which GI50 (BT-549) did it give?
A: 3.18 µM (inactive)

Q: For `C=CC[C@]1(/C=N/O)CN(S(=O)(=O)CC[Si](C)(C)C)C[C@H]2CC=CC[C@H]21`, which GI50 (BT-549) is on record?
A: 28.5 µM (inactive)

Q: Which GI50 (BT-549) does the source give for `S=c1cc(-c2ccc3c(c2)OCO3)s[nH]1` here?
A: > 100 µM (inactive)

Q: `CC1=C[C@H](O)[C@@]2(C)[C@@H]([C@@H]1C)[C@H]1CC[C@@H]3[C@@]4(C)CC[C@H](O)C(C)(C)[C@@H]4CC[C@@]3(C)[C@]1(C)C[C@@H]2O` was tested. Which GI50 (BT-549) did it give?
A: 23.9 µM (inactive)

Q: Which GI50 (BT-549) does the source give for `O=C(O)C(O)(c1ccc(-c2ccccc2)cc1)c1ccc(-c2ccccc2)cc1` here?
A: 20.5 µM (inactive)

Q: With `O=C(c1ccccc1)C(C(=O)c1ccccc1)C1(O)C(=O)c2ccccc2C1=O` as the compound, how does the GI50 (DMS-114) read?
A: > 10 µM (inactive)

Q: And the GI50 (LXFL 529)?
A: 28.6 µM (inactive)

Q: And the GI50 (SNB-78)?
A: 62.2 µM (inactive)

Q: And the GI50 (KM-20L2)?
A: 34.9 µM (inactive)

Q: And the GI50 (XF498)?
A: 84.1 µM (inactive)

Q: And the GI50 (HOP-18)?
A: 68.4 µM (inactive)

Q: How did the GI50 (DLD-1) turn out when `O=[N+]([O-])c1ccc(C2=NN(c3ccccc3)C[N+](c3ccc(Br)cc3)=N2)cc1` was run?
A: > 100 µM (inactive)

Q: And the GI50 (LXFL 529)?
A: 63.5 µM (inactive)

Q: What about the GI50 (SNB-78) of the same compound?
A: > 100 µM (inactive)

Q: And the GI50 (KM-20L2)?
A: > 100 µM (inactive)

Q: What about the GI50 (HOP-18) of the same compound?
A: > 100 µM (inactive)

Q: For `Cc1ccc(OCC2OC(n3cnc4c(Cl)nc(Cl)nc43)CC2Oc2ccc(C)cc2)cc1` (centres undefined), which GI50 (BT-549) is on record?
A: 2.17 µM (inactive)

Q: Which GI50 (BT-549) does the source give for `OCc1ccc2c(c1)CC1(C2)Cc2cc3c(cc2C1)CCC3` here?
A: 2.81 µM (inactive)

Q: How did the GI50 (DMS-114) turn out when `CC1=C(C(=O)Nc2ccccc2C)C(c2ccc(N(C)C)cc2)C(C(=O)Nc2ccccc2C)=C(C)N1` was run?
A: 48.4 µM (inactive)

Q: What about the GI50 (DLD-1) of the same compound?
A: 45.9 µM (inactive)

Q: What about the GI50 (KM-20L2) of the same compound?
A: > 100 µM (inactive)

Q: What about the GI50 (XF498) of the same compound?
A: 22.6 µM (inactive)

Q: And the GI50 (RXF 631)?
A: 56.4 µM (inactive)

Q: For `OC(CN1CCCCC1)c1ccc(/C=C/c2ccc(Cl)cc2)cc1` (centres undefined), which GI50 (BT-549) is on record?
A: > 100 µM (inactive)

Q: How did the GI50 (BT-549) turn out when `CN1CCC2(CC1)SSC1(CCN(C)CC1)S2` was run?
A: 23.9 µM (inactive)

Q: With `CN/C=C(/c1ccc(OC)cc1)C(O)c1ccc(OC)c(OC)c1` (centres undefined) as the compound, how does the GI50 (DMS-114) read?
A: > 100 µM (inactive)

Q: What about the GI50 (DLD-1) of the same compound?
A: > 100 µM (inactive)

Q: What about the GI50 (KM-20L2) of the same compound?
A: > 100 µM (inactive)

Q: And the GI50 (XF498)?
A: > 100 µM (inactive)

Q: And the GI50 (RXF 631)?
A: > 100 µM (inactive)

Q: What about the GI50 (HOP-18) of the same compound?
A: > 100 µM (inactive)

Q: With `COC1OC(C)/C(=N/O)C2OC(C)(C)OC12` (centres undefined) as the compound, how does the GI50 (BT-549) read?
A: > 100 µM (inactive)

Q: For `C[N+](C)=C/C=C(\Cl)c1ccc2ccccc2c1`, which GI50 (BT-549) is on record?
A: 17.7 µM (inactive)

Q: `O=c1cc(NNc2ccc(F)cc2)[nH]c(=O)[nH]1` was tested. Which GI50 (BT-549) did it give?
A: 13.6 µM (inactive)

Q: How did the GI50 (BT-549) turn out when `O=C(Nc1ccccc1)c1cc2ccccc2c(/N=N\c2cccc([N+](=O)[O-])c2)c1O` was run?
A: > 100 µM (inactive)

Q: How did the GI50 (DMS-114) turn out when `OCC(O)CNc1ccnc2cc(Cl)ccc12` (centres undefined) was run?
A: > 100 µM (inactive)

Q: And the GI50 (DLD-1)?
A: > 100 µM (inactive)

Q: What about the GI50 (LXFL 529) of the same compound?
A: > 100 µM (inactive)

Q: And the GI50 (SNB-78)?
A: > 100 µM (inactive)

Q: And the GI50 (KM-20L2)?
A: > 100 µM (inactive)

Q: And the GI50 (XF498)?
A: > 100 µM (inactive)

Q: And the GI50 (HOP-18)?
A: > 100 µM (inactive)

Q: With `Cc1cc(O)c(C=O)c2c1C(=O)Oc1c(CO)c(O)c3c(c1O2)C(O)OC3=O` (centres undefined) [SLAZINIC ACID] as the compound, how does the GI50 (BT-549) read?
A: > 100 µM (inactive)

Q: Which results are given for `COc1ccc2c3c([nH]c2c1[N+](=O)[O-])C(C)N(C(=O)/C=C/c1ccccc1)CC3` (centres undefined)?
A: GI50 (LXFL 529): 5.9 µM (inactive); GI50 (SNB-78): 7.05 µM (inactive); GI50 (KM-20L2): 4.18 µM (inactive)

Q: With `O=C1Oc2ccccc2C(=O)/C1=C\Nc1nc(-c2ccc(O)c(O)c2)cs1` as the compound, how does the GI50 (BT-549) read?
A: 5.77 µM (inactive)

Q: `Nc1ccc2nc(-c3cccc(C(F)(F)F)c3)cc(O)c2c1` was tested. Which GI50 (BT-549) did it give?
A: 23.6 µM (inactive)

Q: What does the source list for `COc1ccc(O)c(C(=O)CCC(=O)O)c1`?
A: GI50 (DMS-114): > 100 µM (inactive); GI50 (DLD-1): > 100 µM (inactive); GI50 (LXFL 529): > 100 µM (inactive); GI50 (SNB-78): > 100 µM (inactive); GI50 (XF498): > 100 µM (inactive); GI50 (RXF 631): > 100 µM (inactive)

Q: `CCOC(=O)c1cc(I)c(-c2cc(C)no2)n1C` was tested. Which GI50 (BT-549) did it give?
A: 64.7 µM (inactive)

Q: For `COC(=O)C1(CCC(C)=O)CCCCCC1=O` (centres undefined), which GI50 (BT-549) is on record?
A: > 100 µM (inactive)

Q: How did the GI50 (BT-549) turn out when `O=C(NCCCN(CCCCN(CCCNC(=O)C(F)(F)F)Cc1ccccc1)Cc1ccccc1)C(F)(F)F` was run?
A: 14.9 µM (inactive)

Q: Which GI50 (BT-549) does the source give for `CCCCCCCCCCCCCCCCCCNC(=O)C(N)Cc1ccc(OCc2ccccc2)cn1` (centres undefined) here?
A: 23.4 µM (inactive)

Q: What does the source list for `O=C(O/N=C1/CCC/C1=C\c1ccccc1)c1ccc(Cl)c(Cl)c1`?
A: GI50 (DMS-114): > 100 µM (inactive); GI50 (DLD-1): > 100 µM (inactive); GI50 (LXFL 529): > 100 µM (inactive); GI50 (SNB-78): > 100 µM (inactive); GI50 (KM-20L2): > 100 µM (inactive); GI50 (RXF 631): > 100 µM (inactive); GI50 (HOP-18): > 100 µM (inactive)
